Columns and labels:
[1] = clinical applications; no reference given; cited from earlier work
AB22 cells = assay: MTT cell vitality assay; type: cell-based, mouse; settings: AB22, 24 h, normoxia, Fig. 3
Experimental: (§1) The MTT assay is based on the reduction in the mitochondria of metabolically active cells by succinate dehydrogenase obtaining a precipitation of purple formazan crystal. The assay was carried out using the same protocol reported by Azzi et al[42]. Briefly, AB22, ZL34 and MCF7 cells were seeded at a density of 7 × 10^3, 5 × 10^3 and 1 × 10^4 cells per well, respectively, in a 96-well microtiter plate. After 24 h at 37 °C and 5% CO2, they were incubated with increasing concentration of CA-SF or AZ for 24 h in a condition of normoxia at 37 °C and 5% CO2 by adding stock solutions in dimethyl sulfoxide (DMSO). In all the conditions the concentration of DMSO during the cell incubation was maintained under 0.25% (v/v) in cell medium. After the incubation, the medium was removed and each well was incubated with thiazolyl blue tetrazolium bromide (Sigma) dissolved in the medium at a concentration of 0.45 mg/mL for 4 h at 37 °C and 5% CO2. Then, after medium elimination, 150 µL of DMSO were added into each well to solubilise the formazan salt crystals produced by the metabolism of live cells and the microplate was incubated at room temperature (RT) for 30 min. Finally, absorbance was measured at 570 nm using an iMark microplate reader (Biorad). Cell vitality was reported as the percentage of […] cells observed in the treated samples relative to that observed in the non-treated control cells.

ZL34 cells = assay: MTT cell vitality assay; type: cell-based, human; settings: ZL34, 24 h, normoxia, Fig. 3
Experimental: as §1

MCF7 cells = assay: MTT cell vitality assay; type: cell-based, human; settings: MCF7, 24 h, normoxia, Fig. 3
Experimental: as §1

Compound: sodium mercaptoundecaidro-closo-dodecaborate [BSH]
- boron concentration ratio between tumour and normal tissues [1]: 3–5

Compound: N[C@@H](Cc1ccc(B(O)O)cc1)C(=O)O [BPA, L-para-boronphenylalanine]
- boron concentration ratio between tumour and normal tissues [1]: 3–5

Compound: CC(=O)Nc1nnc(S(N)(=O)=O)s1 [AZ, 5-acetamido-1,3,4-thiadiazole-2-sulfonamide, reference compound]
- percentage of viable cells with increasing concentration (MTT) (AB22 cells): negligible
- percentage of viable cells with increasing concentration (MTT) (ZL34 cells): negligible
- percentage of viable cells with increasing concentration (MTT) (MCF7 cells): negligible
